In brackets after ≈: the same amount, converted by molar mass.
How the values were obtained:
[1] = test system: PI3K-AKT signaling pathway and apoptosis pathway; test: Western blot of key proteins in FIPV-infected CRFK cells; assay type: cell-based, feline; conditions: treatment group vs FIPV group, p < 0.05
Protocol: Based on the results of the above experiments, the cell precipitates were collected according to the method in Section 4.6 and grouped as described in Section 4.7. After infection, the cells were collected at the appropriate time of infection, and the proteins were extracted from the samples according to the instructions of a total protein extraction kit (strong) (Solarbio, Beijing, China). Afterwards, the protein concentration of the extracted samples was determined separately using a BCA Protein Quantification Kit (Vazyme, Nanjing, China), and all sample proteins were diluted to the same concentration using PBS. The diluted protein samples were mixed with NuPAGE LDS Sample Buffer (4×) (Invitrogen, Waltham, MA, USA) at a ratio of 1:4 and heated at 70 °C for 10 min to denature the proteins. After that, the denatured proteins were added to 10 wells of 12% sodium dodecyl sulfate-polyacrylamide gel electrophoresis (SDS-PAGE) (Vazyme, Nanjing, China) at 20 μg/well, after which the total proteins were separated on NuPAGE MES SDS Running Buffer (Invitrogen, CA, USA). After separation, proteins were transferred from the gel onto 0.45 μm polyvinylidene fluoride (PVDF) membranes (Millipore, Billerica, MA, USA) using WB Transfer Buffer (Solarbio, Beijing, China). After that, the PVDF membranes were blocked with 5% skim milk (Solarbio, Beijing, China) at room temperature for 2 h. At the end of the closure, the membranes were washed with TBST (6 times, each time for 5 min, as described below); then. the primary antibodies were added and incubated at 4 °C overnight. The next day, the PVDF membranes were washed with TBST, the primary antibodies were removed, and the secondary antibodies were added and incubated at room temperature for 2 h (the antibody information and dilutions are shown in Section 4.1.4). At the end of the incubation, the PVDF membranes were washed with TBST, after which the protein bands were exposed and imaged using a SuperPico ECL Chemiluminescence Kit (Vazyme, Nanjing, China) and an Al680 imaging system (GE, Boston, MA, USA). The gray values of the WB bands were analyzed using ImageJ 1.54f, and the relative expression was calculated using GAPDH as an internal reference protein.

FIPV (BJ-01) [2] = test: Direct inactivation of FIPV (compound pre-mixed with virus, CCK-8); assay type: cell-based, feline infectious peritonitis virus
Protocol: According to previous methods, CRFK cells were seeded in 96-well cell culture plates at a density of 1 × 10^4 cells/well and cultured at 37 °C in 5% CO2 until the cell density was greater than 90%. Then, the medium was discarded, and the cells were washed twice with PBS. The compound was mixed with FIPV in the ratio of 1:1 and incubated at 37 °C and 5% CO2 for 30, 60, 90, 120, and 150 min, respectively; then, the mixture of different incubation durations were added into 96-well cell culture plates at 100 μL/well and incubated at 37 °C and 5% CO2, respectively (at the same time, a cell control group with only 100 μL of MM and a viral control group with only 100 μL of FIPV were added). There were 3 replicate wells for each compound and group. After the CPE of the viral control group reached more than 80%, the liquid in the culture plate was removed and washed twice with PBS. Afterwards, the IR of the compounds against the virus was computed according to the directions of the Cell Counting Kit-8.

CRFK cells = test: Cytotoxicity assay of the compounds (CCK-8); assay type: cell-based, feline; conditions: cat, 72 h
Protocol: (§1) CRFK cells were seeded in 96-well cell culture plates at a density of 1 × 10^4 cells/well and incubated at 37 °C with 5% CO2 until the cell density reached more than 90%. Then, the medium was discarded, and the cells were washed twice with PBS. The compound to be tested was diluted in 10 successive gradients with MM at a 2-fold multiplicity (at the same time, there was a cell control group of 100 μL of MM, and 3 replicate wells were set for each concentration and group) and incubated at 37 °C with 5% CO2 for 72 h; then, the liquid in the plate was discarded and washed twice with PBS. Afterwards, the cytopathic ratios (CRs) of the compounds to cells were calculated according to the instructions of the Cell Counting Kit-8 (MCE, NJ, USA), and the CC50s of the compounds and the MNTCs at which the compounds could survive more than 90% of the cells were calculated using GraphPad Prism 10. In subsequent experiments, the final concentrations of the compounds after addition were the MNTCs of the compounds unless otherwise specified.

[3] = Cytotoxicity assay of the compounds (CCK-8); assay type: cell-based, feline; conditions: cat
Protocol: as §1

FIPV (BJ-01) [4] = test: Impact of the compound on FIPV replication (compound added after infection, CCK-8); assay type: cell-based, feline infectious peritonitis virus
Protocol: According to previous methods, CRFK cells were seeded in 96-well cell culture plates at a density of 1 × 10^4 cells/well and cultured at 37 °C in 5% CO2 until the cell density was greater than 90%. Then, the medium was discarded, and the cells were washed twice with PBS. FIPV was first added into 96-well cell culture plates at 100 μL/well then incubated at 37 °C and 5% CO2 for 1, 2, 4, 6, 8, 10, 12, and 14 h, respectively. After that, the viral solution was discarded and washed with PBS twice and then the compound was added at 100 μL/well and incubated at 37 °C and 5% CO2 (at the same time, a cell control group with only 100 μL of MM and a viral control group with only 100 μL of FIPV were added). There were 3 replicate wells for each compound and group. After the CPE of the viral control group reached more than 80%, the liquid in the culture plate was removed and washed twice with PBS. Afterwards, the IR of the compounds against the virus was computed according to the directions of the Cell Counting Kit-8.

SMILES: O=C(O)[C@H]1O[C@@H](Oc2cc3oc(-c4ccccc4)cc(=O)c3c(O)c2O)[C@H](O)[C@@H](O)[C@@H]1O [Baicalin]
- Bax relative expression (WB, GAPDH reference) [1]: significantly downregulated
- Bcl-2/Bax relative expression (WB) [1]: significantly upregulated
- Bcl-2 relative expression (WB, GAPDH reference) [1]: significantly upregulated
- EGFR relative expression (WB, GAPDH reference) [1]: significantly upregulated
- PI3K relative expression (WB, GAPDH reference) [1]: significantly upregulated
- cleaved caspase 9 relative expression (WB, GAPDH reference) [1]: significantly downregulated
- inhibition rate on FIPV (direct inactivation) (FIPV (BJ-01) [2]; 150 min of co-culture of baicalin with FIPV): ~100%
- inhibition rate on FIPV (direct inactivation) (FIPV (BJ-01) [2]; baicalin co-cultured with FIPV 30-150 min before addition to CRFK cells, all times): more than 50%
- MNTC (maximum noncytotoxic concentration) (CRFK cells): 31.36 µg/mL
- CC50 at 72 h [3]: 114 µg/mL (≈ 257 µM)
- inhibition rate on FIPV (replication blocking) (FIPV (BJ-01) [4]; baicalin added after 10 h of infection): significantly reduced
- inhibition rate on FIPV (replication blocking) (FIPV (BJ-01) [4]; baicalin added within 8 h of FIPV infection of CRFK cells): more than 50%

Reference: article PMC11431997, “Baicalin Inhibits FIPV Infection In Vitro by Modulating the PI3K-AKT Pathway and Apoptosis Pathway” (International Journal of Molecular Sciences, 2024)
